{"source": "patent US11040970B2", "about": "“VMAT2 inhibitor compounds and compositions thereof” (Neurocrine Biosciences, Inc., priority 2017, dated 2021)"}
{"target": "VMAT2 (Homo sapiens (Human), UniProt Q05940)", "sequence (Q05940 whole entry)": "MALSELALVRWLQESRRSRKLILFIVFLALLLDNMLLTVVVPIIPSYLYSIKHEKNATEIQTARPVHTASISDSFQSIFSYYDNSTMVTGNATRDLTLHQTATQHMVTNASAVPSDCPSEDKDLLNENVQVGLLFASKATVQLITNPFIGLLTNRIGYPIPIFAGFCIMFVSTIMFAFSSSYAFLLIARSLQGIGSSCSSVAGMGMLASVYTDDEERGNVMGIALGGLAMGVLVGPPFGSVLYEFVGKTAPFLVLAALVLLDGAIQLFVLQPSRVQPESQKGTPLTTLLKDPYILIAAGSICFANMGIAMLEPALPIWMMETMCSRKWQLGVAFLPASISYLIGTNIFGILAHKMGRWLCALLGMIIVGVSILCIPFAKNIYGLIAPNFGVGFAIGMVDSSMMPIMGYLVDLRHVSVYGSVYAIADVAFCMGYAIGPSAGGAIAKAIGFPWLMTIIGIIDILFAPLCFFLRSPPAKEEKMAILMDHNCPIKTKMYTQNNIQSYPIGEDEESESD", "test": "VMAT2 radioligand binding assay: competition against 3H-dihydrotetrabenezine on human platelet homogenate (modified procedure)", "conditions": "10 nM 3H-dihydrotetrabenezine, 25° C., 90 minutes", "description": "Examples of techniques for determining the capability of a compound to inhibit VMAT2 are provided below. The procedure is adapted from that described previously (see, e.g., Near, (1986), Mol. Pharmacol. 30: 252-57; Teng, et al., J. Neurochem. 71, 258-65, 1998). Homogenates from human platelets or Sprague-Dawley rat forebrain were prepared by homogenization and then washed by centrifugation as described previously (see, e.g., Hoare et al., (2003) Peptides 24:1881-97). […] Following incubation at 25° C. for two hours, bound radioligand was collected by rapid filtration onto GF/B glass fiber filters using a Unifilter-96 Harvester (PerkinElmer). Filter plates were pre-treated for 10 minutes with 0.1% polyethylenimine, and following harvesting the filter plates were washed with 800 μl VMAT2 binding buffer. Bound radioligand was quantified by scintillation counting using a Topcount NXT (PerkinElmer).\nFollowing incubation at 25° C. for 90 minutes, bound radioligand was collected by rapid filtration onto GF/B glass fiber filters using a Unifilter-96 Harvester (PerkinElmer). Filter plates were pre-treated with 0.1% polyethylenimine and allowed to dry overnight, and following harvesting the filter plates were washed with 800 μl VMAT2 binding buffer. Bound radioligand was quantified by scintillation counting using a Topcount NXT (PerkinElmer).", "units": {"Ki": "nM"}}
{"smiles": "COc1cc2c(cc1OCCCF)CCN1C[C@@H](CC(C)C)N(C)C[C@H]21", "note": "[Compound 5-3, (3R,11bS)-9-(3-fluoropropoxy)-10-methoxy-2-methyl-3-(2-methylpropyl)-1H,2H,3H,4H,6H,7H,11bH-piperazino[2,1-a]isoquinoline]", "Ki": "10 to 500"}
{"smiles": "COc1cc2c(cc1OCCCF)CCN1C[C@@H](CC3CCC3)N(C)C[C@H]21", "note": "[Compound 8-1, (3R,11bS)-3-(cyclobutylmethyl)-9-(3-fluoropropoxy)-10-methoxy-2-methyl-1H,2H,3H,4H,6H,7H,11bH-piperazino[2,1-a]isoquinoline]", "Ki": "10 to 500"}
{"smiles": "COc1cc2c(cc1OCCCCF)CCN1C[C@@H](CC(C)C)N(C)C[C@H]21", "note": "[Compound 5-14, (3R,11bS)-9-(4-fluorobutoxy)-10-methoxy-2-methyl-3-(2-methylpropyl)-1H,2H,3H,4H,6H,7H,11bH-piperazino[2,1-a]isoquinoline]", "Ki": "< 10"}
{"smiles": "COc1cc2c(cc1OCCCCF)CCN1C[C@@H](CC(C)(C)C)N(C)C[C@H]21", "note": "[Compound 11-10, (3R,11bS)-3-(2,2-dimethylpropyl)-9-(4-fluorobutoxy)-10-methoxy-2-methyl-1H,2H,3H,4H,6H,7H,11bH-piperazino[2,1-a]isoquinoline]", "Ki": "< 10"}
{"smiles": "COc1cc2c(cc1OCCCF)CCN1C[C@@H](CC(C)(C)C)N(C)C[C@H]21", "note": "[Compound 11-1, (3R,11bS)-3-(2,2-dimethylpropyl)-9-(3-fluoropropoxy)-10-methoxy-2-methyl-1H,2H,3H,4H,6H,7H,11bH-piperazino[2,1-a]isoquinoline]", "Ki": "< 10"}
{"smiles": "COc1cc2c(cc1OCC1CCC1)CCN1C[C@@H](CC(C)C)N(C)C[C@H]21", "note": "[Compound 5-11, (3R,11bS)-9-(cyclobutylmethoxy)-10-methoxy-2-methyl-3-(2-methylpropyl)-1H,2H,3H,4H,6H,7H,11bH-piperazino[2,1-a]isoquinoline]", "Ki": "< 10"}
{"smiles": "COc1cc2c(cc1OC1CCCC1)CCN1C[C@@H](CC(C)C)N(C)C[C@H]21", "note": "[Compound 5-7, (3R,11bS)-9-(cyclopentyloxy)-10-methoxy-2-methyl-3-(2-methylpropyl)-1H,2H,3H,4H,6H,7H,11bH-piperazino[2,1-a]isoquinoline]", "Ki": "< 10"}
{"smiles": "COc1cc2c(cc1OCC1CC1)CCN1C[C@@H](CC(C)(C)C)N(C)C[C@H]21", "note": "[Compound 11-7, (3R,11bS)-9-(cyclopropylmethoxy)-3-(2,2-dimethylpropyl)-10-methoxy-2-methyl-1H,2H,3H,4H,6H,7H,11bH-piperazino[2,1-a]isoquinoline]", "Ki": "< 10"}
{"smiles": "COc1cc2c(cc1OCCF)CCN1C[C@@H](CC(C)C)N(C)C[C@@H]21", "note": "[Compound 6-3, (3R,11bR)-9-(2-fluoroethoxy)-10-methoxy-2-methyl-3-(2-methylpropyl)-1H,2H,3H,4H,6H,7H,11bH-piperazino[2,1-a]isoquinoline]", "Ki": "> 500"}
{"smiles": "COc1cc2c(cc1OCC(F)(F)F)CCN1C[C@@H](CC3CCC3)N(C)C[C@H]21", "note": "[Compound 8-2, (3R,11bS)-3-(cyclobutylmethyl)-10-methoxy-2-methyl-9-(2,2,2-trifluoroethoxy)-1H,2H,3H,4H,6H,7H,11bH-piperazino[2,1-a]isoquinoline]", "Ki": "< 10"}
{"smiles": "COc1cc2c(cc1OCC(F)(F)F)CCN1C[C@@H](CC(C)C)N(C)C[C@H]21", "note": "[Compound 5-17, (3R,11bS)-10-methoxy-2-methyl-3-(2-methylpropyl)-9-(2,2,2-trifluoroethoxy)-1H,2H,3H,4H,6H,7H,11bH-piperazino[2,1-a]isoquinoline]", "Ki": "< 10"}
{"smiles": "CCOc1cc2c(cc1OC)[C@H]1CN(C)[C@H](CC(C)(C)C)CN1CC2", "note": "[Compound 11-12, (3R,11bS)-3-(2,2-dimethylpropyl)-9-ethoxy-10-methoxy-2-methyl-1H,2H,3H,4H,6H,7H,11bH-piperazino[2,1-a]isoquinoline]", "Ki": "< 10"}
{"smiles": "COCCOc1cc2c(cc1OC)[C@H]1CN(C)[C@H](CC(C)(C)C)CN1CC2", "note": "[Compound 11-11, (3R,11bS)-3-(2,2-dimethylpropyl)-10-methoxy-9-(2-methoxyethoxy)-2-methyl-1H,2H,3H,4H,6H,7H,11bH-piperazino[2,1-a]isoquinoline]", "Ki": "10 to 500"}
{"smiles": "COc1cc2c(cc1OCC1CCC1)CCN1C[C@@H](CC3CCC3)N(C)C[C@H]21", "note": "[Compound 8-6, (3R,11bS)-9-(cyclobutylmethoxy)-3-(cyclobutylmethyl)-10-methoxy-2-methyl-1H,2H,3H,4H,6H,7H,11bH-piperazino[2,1-a]isoquinoline]", "Ki": "< 10"}
{"smiles": "COc1cc2c(cc1OC)[C@H]1CN(CC(C)C)[C@H](CC(C)C)CN1CC2", "note": "[Compound 2-3, (3R,11bS)-9,10-dimethoxy-2,3-bis(2-methylpropyl)-1H,2H,3H,4H,6H,7H,11bH-piperazino[2,1-a]isoquinoline]", "Ki": "> 500"}
{"smiles": "COc1cc2c(cc1OCCCF)CCN1C[C@@H](CC(C)(C)C)N(C)C[C@@H]21", "note": "[Compound 12-1, (3R,11bR)-3-(2,2-dimethylpropyl)-9-(3-fluoropropoxy)-10-methoxy-2-methyl-1H,2H,3H,4H,6H,7H,11bH-piperazino[2,1-a]isoquinoline]", "Ki": "10 to 500"}
{"smiles": "COc1cc2c(cc1OCCF)CCN1C[C@@H](CC3CCC3)N(C)C[C@H]21", "note": "[Compound 8-4, (3R,11bS)-3-(cyclobutylmethyl)-9-(2-fluoroethoxy)-10-methoxy-2-methyl-1H,2H,3H,4H,6H,7H,11bH-piperazino[2,1-a]isoquinoline]", "Ki": "10 to 500"}
{"smiles": "COc1cc2c(cc1OC)[C@@H]1CN(CC(C)C)[C@H](CC(C)C)CN1CC2", "note": "[Compound 3-3, (3R,11bR)-9,10-dimethoxy-2,3-bis(2-methylpropyl)-1H,2H,3H,4H,6H,7H,11bH-piperazino[2,1-a]isoquinoline]", "Ki": "> 500"}
{"smiles": "COc1cc2c(cc1OCCCC(F)(F)F)CCN1C[C@@H](CC(C)(C)C)N(C)C[C@H]21", "note": "[Compound 11-9, (3R,11bS)-3-(2,2-dimethylpropyl)-10-methoxy-2-methyl-9-(4,4,4-trifluorobutoxy)-1H,2H,3H,4H,6H,7H,11bH-piperazino[2,1-a]isoquinoline]", "Ki": "< 10"}
{"smiles": "COc1cc2c(cc1OC(C)C)CCN1C[C@@H](CC(C)(C)C)N(C)C[C@H]21", "note": "[Compound 11-13, (3R,11bS)-3-(2,2-dimethylpropyl)-10-methoxy-2-methyl-9-(propan-2-yloxy)-1H,2H,3H,4H,6H,7H,11bH-piperazino[2,1-a]isoquinoline]", "Ki": "< 10"}
{"smiles": "COc1cc2c(cc1OC(C)C)CCN1C[C@@H](CC(C)C)N(C)C[C@H]21", "note": "[Compound 5-2, (3R,11bS)-10-methoxy-2-methyl-3-(2-methylpropyl)-9-(propan-2-yloxy)-1H,2H,3H,4H,6H,7H,11bH-piperazino[2,1-a]isoquinoline]", "Ki": "10 to 500"}
{"smiles": "CCCOc1cc2c(cc1OC)[C@H]1CN(C)[C@H](CC(C)C)CN1CC2", "note": "[Compound 5-6, (3R,11bS)-10-methoxy-2-methyl-3-(2-methylpropyl)-9-propoxy-1H,2H,3H,4H,6H,7H,11bH-piperazino[2,1-a]isoquinoline]", "Ki": "< 10"}
{"smiles": "COc1cc2c(cc1OCCCC#N)CCN1C[C@@H](CC(C)C)N(C)C[C@H]21", "note": "[Compound 5-12, 4-{[(3R,11bS)-10-methoxy-2-methyl-3-(2-methylpropyl)-1H,2H,3H,4H,6H,7H,11bH-piperazino[2,1-a]isoquinolin-9-yl]oxy}butanenitrile]", "Ki": "10 to 500"}
{"smiles": "COc1cc2c(cc1OC)[C@H]1CN(C)[C@H](CC(C)(C)C)CN1CC2", "note": "[Compound 11-2, (3R,11bS)-3-(2,2-dimethylpropyl)-9,10-dimethoxy-2-methyl-1H,2H,3H,4H,6H,7H,11bH-piperazino[2,1-a]isoquinoline]", "Ki": "< 10"}
{"smiles": "COc1cc2c(cc1OCC(F)(F)F)CCN1C[C@@H](CC(C)(C)C)N(C)C[C@H]21", "note": "[Compound 11-3, (3R,11bS)-3-(2,2-dimethylpropyl)-10-methoxy-2-methyl-9-(2,2,2-trifluoroethoxy)-1H,2H,3H,4H,6H,7H,11bH-piperazino[2,1-a]isoquinoline]", "Ki": "< 10"}
{"smiles": "COc1cc2c(cc1OCCCF)CCN1C[C@@H](CC(C)C)N(C)C[C@@H]21", "note": "[Compound 6-2, (3R,11bR)-9-(3-fluoropropoxy)-10-methoxy-2-methyl-3-(2-methylpropyl)-1H,2H,3H,4H,6H,7H,11bH-piperazino[2,1-a]isoquinoline]", "Ki": "> 500"}
{"smiles": "COc1cc2c(cc1OCCCC(F)(F)F)CCN1C[C@@H](CC(C)C)N(C)C[C@H]21", "note": "[Compound 5-13, (3R,11bS)-10-methoxy-2-methyl-3-(2-methylpropyl)-9-(4,4,4-trifluorobutoxy)-1H,2H,3H,4H,6H,7H,11bH-piperazino[2,1-a]isoquinoline]", "Ki": "< 10"}
{"smiles": "COc1cc2c(cc1OC1CC1)CCN1C[C@@H](CC(C)C)N(C)C[C@@H]21", "note": "[Compound 6-4, (3R,11bR)-9-cyclopropoxy-10-methoxy-2-methyl-3-(2-methylpropyl)-1H,2H,3H,4H,6H,7H,11bH-piperazino[2,1-a]isoquinoline]", "Ki": "> 500"}
{"smiles": "COc1cc2c(cc1OCC1CC1(F)F)CCN1C[C@@H](CC(C)C)N(C)C[C@H]21", "note": "(stereo partly drawn) [Compound 5-18, (3R,11bS)-9-[(2,2-difluorocyclopropyl)methoxy]-10-methoxy-2-methyl-3-(2-methylpropyl)-1H,2H,3H,4H,6H,7H,11bH-piperazino[2,1-a]isoquinoline]", "Ki": "< 10"}
{"smiles": "COc1cc2c(cc1OC1CCC1)CCN1C[C@@H](CC(C)C)N(C)C[C@H]21", "note": "[Compound 5-16, (3R,11bS)-9-cyclobutoxy-10-methoxy-2-methyl-3-(2-methylpropyl)-1H,2H,3H,4H,6H,7H,11bH-piperazino[2,1-a]isoquinoline]", "Ki": "< 10"}
